Source: PubChem BioAssay (NCI)
Several values for one entry are separate records, joined by “and”; a condition that tells them apart may be missing. Equal values may be shown once.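 48-hour exposure; five concentrations; linearly interpolated endpoints. GI50: concentration for 50% inhibition of growth. TGI is the concentration that stops growth completely.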

Columns and labels:
Test in all cases: NCI-60 cell line screen, 48 h
HT29 colon = system: HT29 colon
IGROV1 ovarian = system: IGROV1 ovarian
OVCAR-8 ovarian = system: OVCAR-8 ovarian
RXF 393 renal = system: RXF 393 renal
SK-MEL-5 melanoma = system: SK-MEL-5 melanoma
SN12C renal = system: SN12C renal
SW-620 colon = system: SW-620 colon
UACC-62 melanoma = system: UACC-62 melanoma
OVCAR-3 ovarian = system: OVCAR-3 ovarian
MDA-MB-435 = system: MDA-MB-435

SMILES	TGI (HT29 colon) [µM]	TGI (IGROV1 ovarian) [µM]	TGI (OVCAR-8 ovarian) [µM]	TGI (RXF 393 renal) [µM]	TGI (SK-MEL-5 melanoma) [µM]	TGI (SN12C renal) [µM]	TGI (SW-620 colon)	TGI (UACC-62 melanoma) [µM]	TGI (OVCAR-3 ovarian) [µM]	GI50 (HT29 colon) [µM]	GI50 (IGROV1 ovarian) [nM]	GI50 (MDA-MB-435) [µM]	TGI (MDA-MB-435) [µM]	GI50 (OVCAR-3 ovarian) [µM]	GI50 (OVCAR-8 ovarian) [µM]	GI50 (SK-MEL-5 melanoma) [µM]	GI50 (SN12C renal) [µM]	GI50 (SW-620 colon) [µM]	GI50 (UACC-62 melanoma) [µM]	GI50 (RXF 393 renal) [µM]
Clc1ccc(C(c2ccc(Cl)cc2)c2ccccn2)cc1	30.8	> 100	33.8	28.2	33	31.7	44 µM	33.4	–	–	–	–	–	–	–	–	–	–	–	–
CC(=O)OC1COC(n2ccc3cc(Br)c([N+](=O)[O-])cc32)C(OC(C)=O)C1OC(C)=O (stereo not given)	> 100	> 100	82.1	> 100	–	> 100	> 100 µM	46.5	65.6	–	–	–	–	–	–	–	–	–	–	–
Cn1cnc([N+](=O)[O-])c1Sc1nc2ccccc2[nH]1	> 100	54.4	30.4	25.3	26.2	30.2	–	–	> 100	–	–	–	–	–	–	–	–	–	–	–
C/C(=N\NC(=S)NC(CCC(=O)O)C(=O)O)c1ccccn1 (stereo not given)	> 100	> 100	> 100	> 100	> 100	> 100	> 100 µM	> 100	> 100	–	–	–	–	–	–	–	–	–	–	–
OCC#Cc1ccccc1C#Cc1ccccc1	97.6	> 100	40.6	–	31.8	21.3	43.6 µM	27.9	20.3	23.6	30300	14.2	28.1	6.9	19.6	15.9	8.79	20	14.8	–
COc1cc2c3c(n(C)c(=O)c2cc1OC)-c1cc2c(cc1/C3=C\CCN)OCO2	> 34.8	> 53.6	5.65	6.86	–	17.6	1.62 µM	4.41	5.09	0.138	882	0.538	9.56	0.564	0.169	–	0.583	< 0.01	0.185	0.823
O=S(=O)(CCn1c(Sc2ccccc2)c(Sc2ccccc2)c2ccccc21)c1ccccc1	> 100	> 100	> 100	–	> 100	> 100	> 100 µM	> 100	> 100	–	–	–	> 100	–	–	–	–	–	–	–
CC(=O)/C(=C\c1cccc([N+](=O)[O-])c1)C(=O)Nc1ccccc1C	> 100	> 100	–	> 100	> 100	> 100	> 100 µM	> 100	> 100	–	–	–	–	–	–	–	–	–	–	–
C#CC1(O)CCC2C3CCc4cc(Oc5nc(F)nc(-c6c7ccccc7c7sc8ccccc8n67)n5)ccc4C3CC[C@@]21C (stereo not given in full)	> 100	> 100	> 100	–	> 100	–	> 100 µM	> 100	> 100	–	–	–	–	–	–	–	–	–	–	–
CC(C)=Cc1cc(C(=O)Nc2ccc(Cl)c(Cl)c2)nc(N)n1	> 100	> 100	> 100	> 100	> 100	> 100	> 100 µM	> 100	> 100	–	–	–	–	–	–	–	–	–	–	–
COc1cc2c3c(n(C)c(=O)c2cc1OC)-c1cc2c(cc1/C3=C\CCCN)OCO2	> 100	32.4	22.4	32	13.8	–	32.9 µM	13.7	29.8	4.57	2240	8.6	41.6	13.8	10.1	2.99	–	2.33	2.13	5.84
CC(C)OP(=O)(OC(C)C)C(=NCCN=C(NNc1ccc([N+](=O)[O-])cc1)P(=O)(OC(C)C)OC(C)C)NNc1ccc([N+](=O)[O-])cc1	–	16.7	> 100	–	> 100	> 100	> 100 µM	36.7	33.4	–	–	–	–	–	–	–	–	–	–	–
Cn1c2ccccc2c2cc(-c3ccccc3)c3c(c21)C(=O)c1ccccc1C3=O	> 100	58.5	68.1	–	–	> 100	66.5 µM	30.1	36.4	–	–	–	–	–	–	–	–	–	–	–
[Cl-].[La+3].[O-]/N=C(\c1ccccc1)c1ccccn1.[O-]/N=C(\c1ccccc1)c1ccccn1.[O-]/N=C(\c1ccccc1)c1ccccn1	> 100	> 100	> 100	> 90.4	> 76.4	> 100	> 100 µM	> 100	> 100	50.4	51500	–	–	39.2	46	28.6	23.5	53.9	33.3	29.8
O=C(Nc1ccc(Cl)cc1)c1cccc(NC2=C(Cl)C(=O)N(Cc3ccccc3)C2=O)c1	> 100	18.1	21.6	–	20.9	24.2	43.6 µM	22.9	47	32.4	2610	23.9	> 100	8.04	10	8.15	7.79	16.3	11	–
COc1ccc(S(=O)(=O)NNS(C)(=O)=O)cc1	> 100	> 100	> 100	> 100	> 100	> 100	> 100 µM	> 100	–	–	–	–	–	–	–	–	–	–	–	–
CN(C)c1nc(=Nc2ccc(N=c3nc(N(C)C)ss3)cc2)ss1	54.5	> 71.7	34.2	41.4	> 61.2	> 92.3	> 65.9 µM	> 21.3	> 78.6	–	–	–	–	–	–	–	–	–	–	–
O=C(/C=C\c1ccc(Cl)c(Cl)c1)c1ccc(Cl)cc1Cl	34.2	49.8	38	39.7	30.8	> 100	8.47 µM and 18.9 µM	35.6	35.7	–	–	–	–	–	–	–	–	–	–	–
c1ccc(COc2cccc3ccc[n+](Cc4ccccc4)c23)cc1	> 100	25.7	–	61.9	–	–	> 100 µM	20.1	–	–	–	–	–	–	–	–	–	–	–	–
